According to patent publication US10760110B2, “Antibiotic testing and screening system” (priority 2017, dated 2020):
Read-outs that look alike come from different tables or passages of the source.

Test system: K. pneumoniae NVT1001 strains with ESBL or AmpC β-lactamase plasmids
Test: Etest MIC of β-lactams, OmpK35/36 loss, ΔramR and/or extended-spectrum β-lactamase and AmpC β-lactamase (Table 8)
Format: cell-based, Klebsiella pneumoniae
Settings: Klebsiella pneumoniae
Protocol: DNA fragments of the resistance genes along with their flanking regions were amplified from clinical plasmids via PCR with specific primer pairs. The resulting PCR fragments were digested and then cloned into the plasmid pACYC177 or pACYC184. The resulting plasmids were then transformed into K. pneumoniae strain NVT1001 via electroporation. The recombinant bacteria were plated onto LB agar plates containing kanamycin (50 mg/L) or chloramphenicol (50 mg/L), and the presence of the cloned gene was confirmed via PCR and DNA sequencing.
The MICs of antibiotics were determined using the Etest (Biodisk AB, Sweden) according to the manufacturer's instructions. The MICs from the Etest, which fall between standard two-fold dilutions, were rounded up to the next highest two-fold value. The MICs of ceftazidime and cefotaxime against K. pneumoniae NVT1001 harbouring the pACYC177 plasmid with blaOXA-48 were further determined using a broth microdilution test according to the recommendations of the CLSI,^25 and the results were interpreted according to the breakpoints established by the CLSI in 2017.^25 Meanwhile, due to the lack of CLSI breakpoints in 2016 and 2017, the results for cephalothin were interpreted according to the breakpoints established by the CLSI in 2015,^26 and the results for moxifloxacin were interpreted according to the breakpoints established by the EUCAST in 2017.^27

SMILES: CO/N=C(\C(=O)N[C@@H]1C(=O)N2C(C(=O)O)=C(COC(C)=O)CS[C@H]12)c1csc(N)n1 [Cefotaxime]
- MIC (CMY-2 on pACYC177, WT (NVT1001), read-out: MIC): 64 µg/mL
- MIC (CMY-2 on pACYC177, Δ35 (ΔompK35 mutant)): 128 µg/mL
- MIC (CMY-2 on pACYC177, Δ35/36 (ΔompK35/36 mutant)): > 256 µg/mL
- MIC (CMY-2 on pACYC177, Δ36 (ΔompK36 mutant)): > 256 µg/mL
- MIC (CMY-2 on pACYC177, ΔramR mutant): 128 µg/mL
- MIC (CMY-2 on pACYC177, ΔramRΔ35 (ΔramRΔompK35 mutant)): 128 µg/mL
- MIC (CMY-2 on pACYC177, ΔramRΔ35/36 (ΔramRΔompK35/36 mutant)): > 256 µg/mL
- MIC (CMY-2 on pACYC177, ΔramRΔ36 (ΔramRΔompK36 mutant)): > 256 µg/mL
- MIC (CTX-M-14 on pACYC177, WT (NVT1001), read-out: MIC): 64 µg/mL
- MIC (CTX-M-14 on pACYC177, Δ35 (ΔompK35 mutant)): 128 µg/mL
- MIC (CTX-M-14 on pACYC177, Δ35/36 (ΔompK35/36 mutant)): > 256 µg/mL
- MIC (CTX-M-14 on pACYC177, Δ36 (ΔompK36 mutant)): > 256 µg/mL
- MIC (CTX-M-14 on pACYC177, ΔramR mutant): 128 µg/mL
- MIC (CTX-M-14 on pACYC177, ΔramRΔ35 (ΔramRΔompK35 mutant)): 128 µg/mL
- MIC (CTX-M-14 on pACYC177, ΔramRΔ35/36 (ΔramRΔompK35/36 mutant)): > 256 µg/mL
- MIC (CTX-M-14 on pACYC177, ΔramRΔ36 (ΔramRΔompK36 mutant)): > 256 µg/mL
- MIC (CTX-M-15 on pACYC177, WT (NVT1001), read-out: MIC): > 256 µg/mL
- MIC (CTX-M-15 on pACYC177, Δ35 (ΔompK35 mutant)): > 256 µg/mL
- MIC (CTX-M-15 on pACYC177, Δ35/36 (ΔompK35/36 mutant)): > 256 µg/mL
- MIC (CTX-M-15 on pACYC177, Δ36 (ΔompK36 mutant)): > 256 µg/mL
- MIC (CTX-M-15 on pACYC177, ΔramR mutant): > 256 µg/mL
- MIC (CTX-M-15 on pACYC177, ΔramRΔ35 (ΔramRΔompK35 mutant)): > 256 µg/mL
- MIC (CTX-M-15 on pACYC177, ΔramRΔ35/36 (ΔramRΔompK35/36 mutant)): > 256 µg/mL
- MIC (CTX-M-15 on pACYC177, ΔramRΔ36 (ΔramRΔompK36 mutant)): > 256 µg/mL
- MIC (DHA-1-AmpR on pACYC177, WT (NVT1001), read-out: MIC): 8 µg/mL
- MIC (DHA-1-AmpR on pACYC177, Δ35 (ΔompK35 mutant)): 16 µg/mL
- MIC (DHA-1-AmpR on pACYC177, Δ35/36 (ΔompK35/36 mutant)): 64 µg/mL
- MIC (DHA-1-AmpR on pACYC177, Δ36 (ΔompK36 mutant)): 16 µg/mL
- MIC (DHA-1-AmpR on pACYC177, ΔramR mutant): 16 µg/mL
- MIC (DHA-1-AmpR on pACYC177, ΔramRΔ35 (ΔramRΔompK35 mutant)): 16 µg/mL
- MIC (DHA-1-AmpR on pACYC177, ΔramRΔ35/36 (ΔramRΔompK35/36 mutant)): 64 µg/mL
- MIC (DHA-1-AmpR on pACYC177, ΔramRΔ36 (ΔramRΔompK36 mutant)): 64 µg/mL
- MIC (SHV-12 on pACYC177, WT (NVT1001), read-out: MIC): 32 µg/mL
- MIC (SHV-12 on pACYC177, Δ35 (ΔompK35 mutant)): 32 µg/mL
- MIC (SHV-12 on pACYC177, Δ35/36 (ΔompK35/36 mutant)): > 256 µg/mL
- MIC (SHV-12 on pACYC177, Δ36 (ΔompK36 mutant)): 32 µg/mL
- MIC (SHV-12 on pACYC177, ΔramR mutant): 64 µg/mL
- MIC (SHV-12 on pACYC177, ΔramRΔ35 (ΔramRΔompK35 mutant)): 64 µg/mL
- MIC (SHV-12 on pACYC177, ΔramRΔ35/36 (ΔramRΔompK35/36 mutant)): 256 µg/mL
- MIC (SHV-12 on pACYC177, ΔramRΔ36 (ΔramRΔompK36 mutant)): 256 µg/mL
- MIC (no supplemental plasmid, WT (NVT1001), read-out: MIC): 0.06 µg/mL
- MIC (no supplemental plasmid, Δ35 (ΔompK35 mutant)): 0.125 µg/mL
- MIC (no supplemental plasmid, Δ35/36 (ΔompK35/36 mutant)): 2 µg/mL
- MIC (no supplemental plasmid, Δ36 (ΔompK36 mutant)): 0.25 µg/mL
- MIC (no supplemental plasmid, ΔramR mutant): 1 µg/mL
- MIC (no supplemental plasmid, ΔramRΔ35 (ΔramRΔompK35 mutant)): 1 µg/mL
- MIC (no supplemental plasmid, ΔramRΔ35/36 (ΔramRΔompK35/36 mutant)): 4 µg/mL
- MIC (no supplemental plasmid, ΔramRΔ36 (ΔramRΔompK36 mutant)): 4 µg/mL
